# Data from US11382884B2, “Method for reducing lung infection” (priority 2017, dated 2022).
# Like-named read-outs stand apart in the source and are kept apart here.
# How the values were obtained:
# [1] = tested on: P. aeruginosa WACC91 planktonic cells; experiment: Checkerboard, tobramycin with other chelators; assay type: cell-based, Pseudomonas aeruginosa; conditions: for effect on the MIC of tobramycin: concentration-dependent, FIGS. 13 and 14
# Description: (§1) Growth method 2: Overnight cultures of the relevant strain of P. aeruginosa were grown in M63 medium supplemented with glucose (0.5% w/v), casamino acids (0.2% w/v) and MgSO4 (1 mM) at 35° C. with shaking. 96-well microplates containing M63 with serial dilutions of antibiotics and adjuvants as indicated were inoculated to OD600 nm 0.01 in a final volume of 200 μl. Plates were incubated at 35° C. overnight without shaking.
# Cells were grown according to method 2 and challenged with different concentrations of tobramycin.
# [2] = tested on: P. aeruginosa planktonic cells and biofilms; experiment: Microplate test of antibiotics of different classes with buffered CaEDTA; assay type: cell-based, Pseudomonas aeruginosa; conditions: growth method 2; FIGS. 7-12
# Description: as §1
# (§2) Planktonic growth was monitored by OD reading or plate counting. Biofilms were quantified by staining with 40 μl of crystal violet stain (1% w/v in water) for 10 min at room temperature, washing twice with 250 μl of water, dissolving the stain in 250 μl of 50% ethanol and reading optical density at 595 nm.
# Cells were grown according to method 2 and challenged with buffered CaEDTA and a series of clinically relevant antibiotics of different classes with different modes of action.
# [3] = tested on: Burkholderia cepacia planktonic cells; experiment: Checkerboard, antibiotics with buffered CaEDTA; assay type: cell-based; conditions: FIGS. 15 and 16
# Description: (§3) Checkerboard assays of other species were carried out using growth method 1, apart from the following variations. Burkholderia cepacia was incubated at 30° C., and other bacteria were incubated at 37° C. Streptococcus pyogenes and Streptococcus pneumoniae were grown in Todd Hewitt Broth, and Staphylococcus aureus was grown in Veal Infusion Broth.
# [4] = tested on: Staphylococcus aureus MRSA; experiment: Antibiotics with buffered CaEDTA against MRSA; assay type: cell-based; conditions: FIG. 19 (vancomycin), FIG. 21 (ciprofloxacin)
# Description: as §3
# [5] = tested on: S. aureus MSSA; experiment: Ciprofloxacin with buffered CaEDTA against MSSA; assay type: cell-based, Staphylococcus aureus; conditions: FIG. 20
# Description: as §3
# [6] = tested on: P. aeruginosa ATCC27853; experiment: Time-kill assay, ceftazidime with or without buffered CaEDTA; assay type: cell-based, Pseudomonas aeruginosa; conditions: ceftazidime 128 ug/ml, buffered CaEDTA 20 mM
# Description: This is likely a result of increased antibiotic killing. Challenge microorganisms were grown on solid agar and suspended in 0.9% Sodium Chloride (SCl) to create a challenge suspension. A 0.1 mL aliquot of the challenge suspension containing approximately 1×10^8 colony forming units was then inoculated into 10 mL Cation-Adjusted Mueller Hinton Broth (CaMHB) with the appropriate antibiotic or antibiotic with chelator, as indicated, and mixed thoroughly. The challenge suspension/antibiotic mixtures were then incubated at 35 degrees C. for the exposure time. At each timepoint, 0.1 mL aliquots were removed and placed into 9.9 mL of Butterfield's Phosphate Buffer with product neutralizers, mixed thoroughly by vortexing, and plated using the appropriate agar. Recovered colonies were enumerated using a hand-tally counter.
# [7] = tested on: P. aeruginosa; conditions: ten CF children, nebulised sodium EDTA and oral tetracycline for three months; cited from earlier work
# [8] = 300 mg/day for two weeks (75 mg QID); FIG. 26
# Description: Subjects were then discharged and treatment was continued twice a day for four weeks. Patients were monitored for a further four weeks, bringing the total study time to 10 weeks. At each study visit, lung function was measured by spirometry. Data was recorded as the best of three attempts, and results were expressed as % predicted.
# [9] = tested on: P. aeruginosa WACC91 biofilms; experiment: Checkerboard, biofilm growth (crystal violet staining), tobramycin with CaEDTA or buffered CaEDTA; assay type: cell-based, Pseudomonas aeruginosa
# Description: (§4) Growth method 1: Cells were grown in M9 medium supplemented with arginine and MgSO4, in polystyrene 96-well plates (Nunc) by seeding each well with […] of an overnight culture of P. aeruginosa strain WACC 91 and incubating at 37° C. for 24 hours.
# (§5) Anaerobic cultures were incubated in a closed chamber with anaerobic sachets to remove oxygen.
# as §2
# (§6) Cells of P. aeruginosa WACC91 were grown according to method 1 and tested in a checkerboard assay against tobramycin and CaEDTA in varying concentrations.
# [10] = tested on: P. aeruginosa clinical strain biofilms; experiment: Biofilms in hanging drops of CF mucus treated with nebulised tobramycin and/or aerosolised EDTA particles; assay type: cell-based, Pseudomonas aeruginosa; conditions: for biofilm viability (BacLight LIVE/DEAD, confocal microscopy): 5 min treatment, nebulised tobramycin 20 mg/ml and/or aerosolised EDTA particles 10 mg/ml, 16 hours incubation, FIG. 24A
# Description: Biofilms were grown in a realistic in vitro model using suspended drops of cystic fibrosis mucus harvested from epithelial cell lines (Haley, C. L., Colmer-Hamood, J. A., and Hamood, A. N. (2012). Characterization of biofilm-like structures formed by Pseudomonas aeruginosa in a synthetic mucus medium. BMC Microbiol 12, 181.).
# Drops of mucus (5 μl) were suspended from an inverted IBIDI cover slip and inoculated with 10^3 cfu, then incubated in a humidified environment at 35° C. for 72 hours to allow biofilm development. […] Controls were treated with a 50/50 solution of nebulised 0.9% saline/water. Following treatment, the drops were incubated for 16 hours, then stained with BacLight LIVE/DEAD (1 μl), and fixed in paraformaldehyde vapour for 30 min. Biofilms were visualised using confocal microscopy.
# [11] = single dose of 75 mg CaEDTA; after 30 minutes; FIG. 28
# Description: Vials were then centrifuged at 100 g for 5 min to sediment precipitated proteins and 754 μL of the methanol extract taken for derivatisation. […] Derivatised extract (1 μl) was injected into a Waters microflow HPLC equipped with a triple quad mass […] detector.
# [12] = tested on: P. aeruginosa biofilms
# Description: Biofilm disruption or killing was monitored by growing cells as described and removing planktonic cells by pipetting. The attached biofilm was washed carefully with sterile PBS three times, and fresh medium containing the treatment (tobramycin alone or together with CaNa2EDTA in solution, tris-buffered solution, or as dry powder particles) was added. Plates were incubated for a further 24 hours and metabolic activity was measured. Biofilms were washed as described above, then fresh medium containing 0.02% w/v resazurin was added. Plates were shaken briefly to mix, then incubated at 37° C. for 2 hours. Metabolic activity, as reflected by the conversion of resazurin to resafurin, was assessed by measuring the increase in fluorescence at an excitation wavelength of 530 nm with detection at 590 nm.
# [13] = tested on: P. aeruginosa WACC91; conditions: for interaction with tobramycin, planktonic growth (OD600 nm): checkerboard
# Description: as §4, §5, §2, §6
# [14] = tested on: P. aeruginosa clinical strain; experiment: MIC of tobramycin for the clinical strain; assay type: cell-based; conditions: Pseudomonas aeruginosa; P. aeruginosa clinical strain used in the CF mucus model
# [15] = tested on: Klebsiella pneumoniae planktonic cells and biofilms; experiment: Checkerboard, colistin with buffered CaEDTA; assay type: cell-based
# Description: as §3
# [16] = 4 ug/ml tobramycin, 6.25 mM CaEDTA, aerobic and anaerobic, FIG. 5
molecule,measurement,setting,value
"O=C(O)CN(CCN(CC(=O)O)CC(=O)O)CCN(CC(=O)O)CC(=O)O [DTPA, diethylenetriaminepentaacetic acid]",interaction with tobramycin,[1]; FIG. 14,synergy
same,effect on the MIC of tobramycin,[1],reduce the MIC
CC1(C)S[C@@H]2[C@H](NC(=O)C(C(=O)O)c3ccccc3)C(=O)N2[C@H]1C(=O)O (stereo partly shown) [carbenicillin],sensitivity of P. aeruginosa to the antibiotic in the presence of buffered CaEDTA,[2],increases the sensitivity
O=C(O)c1cn(C2CC2)c2cc(N3CCNCC3)c(F)cc2c1=O [ciprofloxacin],MIC of B. cepacia in the presence of buffered CaEDTA,[3],lowered
same,MIC in the presence of buffered CaEDTA,[4],reduced MIC values
same,MIC in the presence of buffered CaEDTA,[5],reduced MIC values
CN[C@H](CC(C)C)C(=O)N[C@H]1C(=O)N[C@@H](CC(N)=O)C(=O)N[C@H]2C(=O)N[C@H]3C(=O)N[C@H](C(=O)N[C@H](C(=O)O)c4cc(O)cc(O)c4-c4cc3ccc4O)[C@H](O)c3ccc(c(Cl)c3)Oc3cc2cc(c3O[C@@H]2O[C@H](CO)[C@@H](O)[C@H](O)[C@H]2O[C@H]2C[C@](C)(N)[C@H](O)[C@H](C)O2)Oc2ccc(cc2Cl)[C@H]1O [vancomycin],MIC in the presence of buffered CaEDTA,[4],reduced MIC values
CC(C)(O/N=C(\C(=O)N[C@@H]1C(=O)N2C(C(=O)[O-])=C(C[n+]3ccccc3)CS[C@H]12)c1csc(N)n1)C(=O)O [ceftazidime],rate of killing in the presence of buffered CaEDTA,[6],much more rapid
sodium EDTA,lung function or infection status,[7],no change in lung function or infection status
COc1cccc(OC)c1C(=O)N[C@@H]1C(=O)N2[C@@H]1SC(C)(C)[C@@H]2C(=O)O [methicillin],sensitivity of P. aeruginosa to the antibiotic in the presence of buffered CaEDTA,[2],increases the sensitivity
O=C([O-])CN(CCN(CC(=O)[O-])CC(=O)[O-])CC(=O)[O-].[Ca+2].[Na+].[Na+] [CaEDTA],"improvement in lung function (FEV1), average",[8],16 % points
same,biofilm growth when CaEDTA is added to tobramycin,[9]; [16],reduced
same,"interaction with tobramycin, biofilm growth (CV staining)","[9]; aerobic conditions, checkerboard, FIG. 2",synergistic effect
same,effect on the concentration of tobramycin required to block biofilm formation,"[9]; aerobic, FIG. 2",lowers the concentration of tobramycin required
same,"interaction with tobramycin, biofilms","[9]; anaerobic conditions, checkerboard, FIG. 4",synergistic effect
same,"biofilm viability (BacLight LIVE/DEAD, confocal microscopy)",[10],some degree of killing
same,interaction with tobramycin on biofilms in CF mucus,"[10]; submicron particles of CaEDTA, tobramycin 325 μg/ml final in droplets, FIG. 24",act synergistically
same,EDTA inside mucus plugs,[11],up to 1.34 mM
same,effect on efficacy of tobramycin against existing biofilms (metabolic activity),[12]; FIG. 6,increases the efficacy
same,dependence of the synergistic effect on mode of delivery,"[12]; solution or dry powder, FIG. 6B",does not depend on the mode of delivery
same,"interaction with tobramycin, metabolism of biofilms","[12]; submicron particles of CaEDTA, aerosolised, 96-well plates, FIG. 6",synergistic effect
same,effect on killing of biofilms by tobramycin,"[12]; tobramycin concentrations<1 mg/ml, FIG. 6A",substantially enhances killing
same,planktonic growth when CaEDTA is added to tobramycin,[13]; [16],reduced
same,"interaction with tobramycin, planktonic growth (OD600 nm)","[13]; aerobic conditions, FIG. 1",synergistic effect
same,"interaction with tobramycin, planktonic growth (OD600 nm)","[13]; anaerobic conditions, FIG. 3",synergistic effect
same,effect on the MIC of tobramycin,"[13]; planktonic cells, aerobic conditions, FIG. 1",lowers the MIC
same,lowest effective concentration in vitro,"[13]; with tobramycin, FIGS. 1B and 2B",0.078 mM
C[C@H]1[C@H](NC(=O)/C(=N\OC(C)(C)C(=O)O)c2csc(N)n2)C(=O)N1S(=O)(=O)O [aztreonam],sensitivity of P. aeruginosa to the antibiotic in the presence of buffered CaEDTA,[2],increases the sensitivity
"O=C(O)CN(CCOCCOCCN(CC(=O)O)CC(=O)O)CC(=O)O [EGTA, ethylene glycol tetraacetic acid]",effect on the MIC of tobramycin,[1],reduce the MIC
NC[C@H]1O[C@H](O[C@H]2[C@H](O)[C@@H](O[C@H]3O[C@H](CO)[C@@H](O)[C@H](N)[C@H]3O)[C@H](N)C[C@@H]2N)[C@H](N)C[C@@H]1O [tobramycin],MIC of B. cepacia in the presence of buffered CaEDTA,[3],lowered
same,biofilm formation at sub-MIC concentration,"[9]; tobramycin alone, 4 ug/ml, FIG. 5",increase biofilm formation
same,"biofilm viability (BacLight LIVE/DEAD, confocal microscopy)",[10],little effect on viability
same,MIC,[14],> 256 µg/mL
colistin,sensitivity of planktonic cells in the presence of buffered CaEDTA,[15]; FIG. 17A,sensitized
same,sensitivity of biofilms in the presence of buffered CaEDTA,[15]; FIG. 17B,sensitized
same,sensitivity of P. aeruginosa to the antibiotic in the presence of buffered CaEDTA,[2],increases the sensitivity
CC[C@H]1OC(=O)[C@H](C)[C@@H](O[C@H]2C[C@@](C)(OC)[C@@H](O)[C@H](C)O2)[C@H](C)[C@@H](O[C@@H]2O[C@H](C)C[C@H](N(C)C)[C@H]2O)[C@](C)(O)C[C@@H](C)C(=O)[C@H](C)[C@@H](O)[C@]1(C)O [erythromycin],sensitivity of P. aeruginosa to the antibiotic in the presence of buffered CaEDTA,[2],increases the sensitivity
